Data taken from patent US9757424B2, “Compositions and methods of treating gliomas” (BioMed Valley Discoveries, Inc., priority 2011, dated 2017).
Several values for one entry are separate records, joined by “and”; a condition that tells them apart may be missing. Equal values may be shown once. Read-outs that look alike come from different tables or passages of the source.

Experiments:
[1] = test system: U87MG human glioblastomas; assay: U87MG human glioblastoma xenograft in nude mice, tumor growth inhibition Day 22 (Example 1)
Description: Each test mouse received a U87MG tumor fragment of the size 1 mm^3. […] Body weight and tumor size were monitored.
It was administered at either 5 mg/kg orally (p.o.) per day or 100 mg/kg (p.o.) per day, once daily from day 1 to day 5 of the treatment (qd×5). Candesartan in 0.5% carboxymethyl cellulose was dissolved in deionized water and administered intraperitoneally (i.p.) at the dose of 10 mg/kg once daily from day 1 to day 21 (qd×21).

[2] = test system: U87MG glioma human tumor cell line
Description: Compounds are assessed for combination efficacy in a tumor fragment xenograft model generated by serial passage of a commonly available U87MG glioma human tumor cell line. Experimental cohorts are derived by seeding 8-12 week old, female HRLN nu/nu mice with 1 mm^3 sub-fragments of tumors maintained through serial passage in living xenografts. […] Experimental compounds are dosed once daily, in a dose volume less than or equal to 10 mL/kg, in varying vehicle resuspensions and varied routes (see table 7 below). All animals are assessed periodically for body weight, as well as tumor burden using standard protocols with mechanical calipers.
Experimental compounds are scored for efficacy using various data analyses, including manual growth curve inspection, comparison of mean time-to-tumor burden (analogous to C/T analysis), and time-to-event survival analysis by tumor burden.

U87MG tumor fragments = assay: animal or person; conditions: for Regression CR (complete regression) / Regression PR (partial regression): number of animals
Description: HRLN female nu/nu mice were seeded with 1 mm^3 U87MG tumor fragments subcutaneously in the flank. Final caliper and body weight measurements were taken on the last day of the study.
All animals were assessed periodically for body weight, as well as tumor burden, using standard protocols with mechanical calipers. […] Dosing was stopped for any group with two measurements of mean body weight loss of greater than 20%. The group was not euthanized, and recovery was allowed. Within a group with greater than 20% weight loss, individuals reaching the individual body weight loss endpoint were euthanized. If the group body weight loss was recovered, dosing may resume. […] Dosing was then resumed with the candidate agent at half the original dose. Animals were monitored as a group. The endpoint of the experiment was a mean tumor weight in control group (or group 1) of 2000 mm^3 or 60 days, whichever comes first. When the endpoint was reached, all the animals were euthanized.

[3] = test system: U87MG human glioblastoma xenografts
Description: An untreated group served as the control group for efficacy analysis. Dosing was initiated on Day 1, except where indicated otherwise, and tumors were measured twice each week until the study was ended on Day 46. Animals were monitored individually and each mouse was euthanized for endpoint when its tumor attained a volume of 2000 mm^3 (about 2 grams) or on the final day (Day 46), whichever came first.
Treatment response was determined from an analysis of percent tumor growth delay (% TGD), defined as the percent increase in the median time to endpoint (TTE) in treated versus control mice; by logrank significance of differences in survival among treatment groups; and by regression responses. Plots of group mean tumor growth were also considered. Treatment tolerability was assessed by body weight measurements and frequent observation for clinical symptoms of treatment-related side effects.
Xenografts were initiated with U87MG human glioblastomas maintained at Piedmont by serial subcutaneous transplantation in athymic nude mice. Each test mouse received a U87MG tumor fragment (1 mm^3) implanted subcutaneously in the right flank, and the growth of tumors was monitored as the average size approached the target range of 80 to 120 mm^3. […] Tumor volume was calculated using the formula: Tumor Volume (mm^3)=w^2×l where w=width and l=length in mm of a U87MG tumor. Tumor weight may be estimated with the assumption that 1 mg is equivalent to 1 mm^3 of tumor volume.
On Day 1 of the study, mice were sorted into six groups each consisting of ten mice, and dosing was initiated according to the treatment plan summarized in Table 1. Group 1 mice were not treated and served as controls for calculation of % TGD. […] All doses were scaled to the body weights of the individual animals.
Tumors were measured twice each week using calipers. Animals were monitored individually, and each mouse was euthanized when its tumor reached the endpoint size of 2000 mm^3 or at the conclusion of the study (Day 46), whichever came first.
Animals were monitored for regression responses. Treatment may cause partial regression (PR) or complete regression (CR) of the tumor in an animal. In a PR response, the tumor volume is 50% or less of its Day 1 volume for three consecutive measurements during the course of the study, and equal to or greater than 13.5 mm^3 for one or more of these three measurements. In a CR response, the tumor volume is less than 13.5 mm^3 for three consecutive measurements during the course of the study. An animal with a CR response at the termination of a study is additionally classified as a tumor-free survivor (TFS).
Animals were weighed daily on Days 1-5, and then twice weekly until the study was completed. […] Acceptable toxicity was defined as a group mean body-weight loss of less than 20% during the study and not more than one treatment-related (TR) death among ten treated animals. Any dosing regimen that results in greater toxicity is considered above the maximum tolerated dose (MTD). […] A death is classified as NTR if there is no evidence that death was related to treatment side effects. NTR deaths may be further characterized based on cause of death. A death may be classified as NTRa if it resulted from an accident or human error. […] A death may be classified as NTRu if the cause of death is unknown and there is no available evidence of death related to treatment side effects, metastasis, accident or human error, although death due to treatment side effects cannot be excluded.

[4] = test system: U87MG human glioblastoma xenografts; assay: U87MG human glioblastoma xenograft, tumor growth delay, 49-day study (Example 2);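 note: female athymic nude mice with subcutaneous tumors, groups of ten, tumors measured twice weekly, endpoint at 2000 mm^3 tumor volume or Day 49, treated compared with control mice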
Description: The experiment consisted of groups (n=10) of female athymic nude mice bearing subcutaneous U87MG xenografts (75-144 mm^3) on Day 1. Candesartan was evaluated as monotherapies at dosages of 1, 5, 10 and 50 mg/kg administered intraperitoneally (i.p.) on a once daily for twenty-one days (qd×21) schedule. […] Dosing was initiated on Day 1, and tumors were measured twice each week until the study was ended on Day 49. Animals were monitored individually and each mouse was euthanized for endpoint when its tumor attained a volume of 2000 mm^3 (about 2 grams) or on the final day (Day 49), whichever came first. Tumor samples were collected at endpoint, and histopathology analyses were performed.
The time to endpoint (TTE) was calculated for each mouse. Treatment outcome was determined from percent tumor growth delay (% TGD), defined as the percent increase in median TTE of treated versus control mice, with differences in the TTE values between groups deemed statistically significant at P 0.05 using logrank survival analysis. Animals were also monitored for partial regression (PR) and complete regression (CR) responses. Treatment tolerability was assessed by body weight measurements and frequent observation for signs of treatment-related (TR) toxicity.
Treatment response was determined from an analysis of percent tumor growth delay (% TGD), defined as the percent increase in the median time to endpoint (TTE) in treated versus control mice; by logrank significance of differences in survival among treatment groups; and by regression responses. Plots of group mean tumor growth were also considered. Treatment tolerability was assessed by body weight measurements and frequent observation for clinical symptoms of treatment-related (TR) side effects.
Xenografts were initiated with U87MG human glioblastomas (Piedmont Research Center, Morrisville, N.C.) by serial subcutaneous transplantation in athymic nude mice. Each test mouse received a U87MG tumor fragment (1 mm^3) implanted subcutaneously in the right flank, and the growth of tumors was monitored as the average size approached the target range of 80 to 120 mm^3. […] Tumor volume was calculated using the formula: Tumor Volume (mm^3)=w^2×l/2 where w=width and l=length in mm of a U87MG tumor. Tumor weight may be estimated with the assumption that 1 mg is equivalent to 1 mm^3 of tumor volume. Therapeutic Agents
Doses of valsartan and candesartan were each formulated weekly, and were stored at 4° C. Valsartan dosing solutions were formulated at concentrations of 15 and 3 mg/mL to yield the desired 150 and 30 mg/kg dosages, respectively, in a dosing volume of 0.2 mL per 20 grams body weight (10 mL/kg). The required amount of valsartan powder for the 15 mg/mL solution was suspended in sterile saline, then dissolved with 0.1 N NaOH and pH adjusted to 7.4 with 0.1 N HCl. The 3 mg/mL valsartan dosing solution was prepared by diluting an aliquot of the 15 mg/mL valsartan solution with sterile saline. Candesartan doses were formulated in 0.5% carboxymethyl cellulose (CMC) in deionized water at concentrations of 5, 1, 0.5 and 0.1 mg/mL to yield the desired 50, 10, 5 and 1 mg/kg dosages, respectively, in a dosing volume of 10 mL/kg.
Each test agent was administered intraperitoneally (i.p.) once daily for twenty-one days (qd×21), unless otherwise indicated.
Group 1 was not treated and served as the control group for calculation of % TGD. […] Groups 4-7 received candesartan at 50, 10, 5 or 1 mg/kg, respectively. […] All doses were scaled to the body weights of the individual animals.
Tumors were measured twice each week using calipers.

[5] = temozolomide 100 mg/kg p.o. qdx5
[6] = Day 1, temozolomide 100 mg/kg p.o. qdx5
[7] = Day 4, temozolomide 100 mg/kg p.o. qdx5
[8] = Day 7, temozolomide 100 mg/kg p.o. qdx5
[9] = Day 11, temozolomide 100 mg/kg p.o. qdx5
[10] = Day 14, temozolomide 100 mg/kg p.o. qdx5
[11] = Day 18, temozolomide 100 mg/kg p.o. qdx5
[12] = Day 21, temozolomide 100 mg/kg p.o. qdx5
[13] = Day 25, temozolomide 100 mg/kg p.o. qdx5
[14] = Day 28, temozolomide 100 mg/kg p.o. qdx5
[15] = temozolomide 100 mg/kg po qd x 5
[16] = Group 1: temozolomide 5 po qd x 5 alone
[17] = Group 1: temozolomide 5 po qd x 5 alone, n=10
[18] = Group 19: temozolomide 100 po qd x 5 alone
[19] = Group 19: temozolomide 100 po qd x 5 alone, n=8
[20] = Group 2: temozolomide 5 mg/kg po qd x 5
[21] = Group 6: temozolomide 100 mg/kg po qd x 5
[22] = Group 2: temozolomide 100 mg/kg po qd x 5
[23] = Group 3: temozolomide 5 mg/kg po qd x 5

## Cn1nnc2c(C(N)=O)ncn2c1=O [Temozolomide, temozolomide]
[1]; temozolomide 5 mg/kg p.o. qdx5
  MTV (n) Day 22 (mean tumor volume): 825 mm^3
  No. of CR: 0
  No. of NTR: 0
  No. of PR: 0
  No. of TR: 0
[1]; temozolomide 5 mg/kg p.o. qdx5, listed as temozolomide
  MTV (n) Day 22 (mean tumor volume): 825.1 ± 95.03 N = 115 mm^3
[1]; [5]
  No. of CR: 0
  No. of NTR: 0
  No. of PR: 1
  No. of TR: 0
[1]; temozolomide 100 mg/kg p.o. qdx5, Day 22, compared to temozolomide at 5 mg/kg
  % TGI: 88%
[2]; Day 1, temozolomide 5 mg/kg po qd x 5
  TV, group Mean: 111.2 mm^3
[2]; [6]
  TV, group Mean: 110.7 mm^3
  TV, individual mice: 88 mm^3 and 108 mm^3
[2]; Day 4, temozolomide 5 mg/kg po qd x 5
  TV, group Mean: 222.2 mm^3
[2]; [7]
  TV, group Mean: 182.8 mm^3
  TV, individual mice: 144 mm^3 and 172 mm^3
[2]; Day 7, temozolomide 5 mg/kg po qd x 5
  TV, group Mean: 439.1 mm^3
[2]; [8]
  TV, group Mean: 185 mm^3
  TV, individual mice: 144 mm^3 and 196 mm^3
[2]; Day 11, temozolomide 5 mg/kg po qd x 5
  TV, group Mean: 599.1 mm^3
[2]; [9]
  TV, group Mean: 215.2 mm^3
  TV, individual mice: 100 mm^3 and 256 mm^3
[2]; Day 14, temozolomide 5 mg/kg po qd x 5
  TV, group Mean: 720.4 mm^3
[2]; [10]
  TV, group Mean: 221.5 mm^3
  TV, individual mice: 144 mm^3
[2]; Day 18, temozolomide 5 mg/kg po qd x 5
  TV, group Mean: 852.1 mm^3
[2]; [11]
  TV, group Mean: 140.6 mm^3
  TV, individual mice: 88 mm^3
[2]; Day 21, temozolomide 5 mg/kg po qd x 5
  TV, group Mean: 1058.6 mm^3
[2]; [12]
  TV, group Mean: 99.1 mm^3
  TV, individual mice: 75 mm^3
[2]; Day 25, temozolomide 5 mg/kg po qd x 5
  TV, group Mean: 1795.6 mm^3
[2]; [13]
  TV, group Mean: 98.4 mm^3
  TV, individual mice: 88 mm^3
[2]; Day 28, temozolomide 5 mg/kg po qd x 5
  TV, group Mean: 1890.8 mm^3
[2]; [14]
  TV, group Mean: 95 mm^3
  TV, individual mice: 144 mm^3
[2]; temozolomide 5 mg/kg po qd x 5
  Deaths NTR: 0
  Deaths TR: 0
  MTV (n) Day 25 (median tumor volume): 1180 mm^3
  Regressions CR: 0
  Regressions PR: 0
[2]; [15]
  Deaths NTR: 0
  Deaths TR: 0
  MTV (n) Day 25 (median tumor volume): 88 mm^3
  Regressions CR: 0
  Regressions PR: 0
[2]; temozolomide 100 mg/kg po qd x 5, Day 25, compared to temozolomide 5 mg/kg group
  % TGI: 94%
U87MG tumor fragments; [16]
  Deaths NTR (non-treatment-related death): 0
  Deaths TR (treatment-related death): 0
  MTV(n) Day 29 (median tumor volume): 410 (10) mm^3
U87MG tumor fragments; [17]
  Regression CR (complete regression): 1
  Regression PR (partial regression): 0
U87MG tumor fragments; [18]
  Deaths NTR (non-treatment-related death): 0
  Deaths TR (treatment-related death): 0
  Mean BW Nadir (lowest group mean body weight, as % change from Day 1): −2.5%
  MTV(n) Day 29 (median tumor volume): 10 (8) mm^3
U87MG tumor fragments; [19]
  Regression CR (complete regression): 7
  Regression PR (partial regression): 1
U87MG tumor fragments; Mus musculus, U-87 MG, po, 864 h, read-out: % TGI (percent tumor growth inhibition, compared to Group 1)
  inhibition in vivo at 100 mg/kg: 98%
U87MG tumor fragments; mouse, in vivo, po
  Mean BW Nadir, day of nadir: Day 8
[3]
  Median TTE: 42.0 days
[3]; [20]
  % TGD (vs Group 1): 152%
  Deaths NTR: 0
  Deaths TR: 0
  Median TTE: 28.7 days
  Regressions CR: 0
  Regressions PR: 0
  Regressions TFS: 0
  T − C (TGD vs Group 1): 17.3 days
[3]; [21]
  % TGD (vs Group 1): 268%
  Deaths NTR: 0
  Deaths TR: 0
  Median TTE: 42 days
  Regressions CR: 1
  Regressions PR: 0
  Regressions TFS: 1
  T − C (TGD vs Group 1): 30.6 days
[3]; Group 6: temozolomide 100 mg/kg po qd x 5, excludes animals attaining tumor volume endpoint
  MTV (n) Day 46 (median tumor volume): 0 (1) mm3
[4]; [22]
  % TGD (vs Group 1): 276%
  Deaths NTR: 0
  Deaths TR: 0
  MTV (n) Day 49: 0 (2) mm^3
  Median TTE: 43.6 days
  Regressions CR: 2
  Regressions PR: 3
  Regressions TFS: 2
  T − C (TGD vs Group 1): 32.0 days
[4]; [23]
  % TGD (vs Group 1): 93%
  Deaths NTR: 0
  Deaths TR: 0
  Median TTE: 22.4 days
  Regressions CR: 0
  Regressions PR: 0
  Regressions TFS: 0
  T − C (TGD vs Group 1): 10.8 days
